Test results taken from patent US20260183297A1, “SELECTION OF PATIENTS FOR THE TREATMENT OF FADS1-MEDIATED DISEASES OR DISORDERS USING FADS-1 INHIBITORS” (AMGEN INC., priority 2022, published 2026).

Legend:
human FADS2 = molecular target: T1, human FADS2 (Homo sapiens, UniProt O95864); assay: In vitro FADS2 activity assay (HEK 293 cells with FADS2 BacMam, 13C-LA substrate); type: cell-based
T1 construct: expressed in transfected cells; host or cells: HEK 293 cells transduced with FADS2 BacMam (MOI 25)
T1 sequence (O95864 1-444): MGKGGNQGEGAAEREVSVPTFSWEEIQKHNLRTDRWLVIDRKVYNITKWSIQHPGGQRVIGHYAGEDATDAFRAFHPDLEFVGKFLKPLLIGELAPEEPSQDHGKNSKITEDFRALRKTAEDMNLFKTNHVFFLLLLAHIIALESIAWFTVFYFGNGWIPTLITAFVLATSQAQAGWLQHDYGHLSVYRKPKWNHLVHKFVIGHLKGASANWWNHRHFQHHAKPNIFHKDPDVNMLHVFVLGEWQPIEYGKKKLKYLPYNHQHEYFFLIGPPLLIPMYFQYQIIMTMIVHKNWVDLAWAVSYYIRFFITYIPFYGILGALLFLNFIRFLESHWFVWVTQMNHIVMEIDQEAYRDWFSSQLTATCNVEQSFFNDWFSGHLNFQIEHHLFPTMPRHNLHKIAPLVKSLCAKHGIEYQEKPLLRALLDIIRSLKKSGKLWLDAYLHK
Method: (§1) HEK 293 cells in Dulbecco's Modified Eagle's medium (DMEM), 10% fetal bovine serum (FBS), 1× penicillin-streptomycin-glutamine (PSG) were mixed with FADS1 BacMam or FADS2 BacMam reagents at multiplicity of infection (MOI) ratio of 25 and plated in a in 96-well poly-D-lysine-coated plate. Plates were incubated in a 37° C., 5% CO2 for 24 hours. Cells were washed with DPBS and cells were incubated with […] of compound dilution in DPBS at 5% CO2, 37° C. for 20 minutes. Ten L of the substrate, ^13C5-DGLA (FADS1), or 13C-LA (FADS2) diluted in DPBS were added to the cells and incubated at 5% CO2, 37° C. for 30 minutes (FADS1) or 45 minutes (FADS2). Cells were then washed with DPBS and 50 μL of 2N NaOH were added to each well and incubated in a 65° C. oven for 1 hour for the saponification reaction. After cooling to room temperature, 22 μl of formic acid was added followed by the addition of 113 μl of acetonitrile with 1.5 μM ALA-d14 as the internal standard. Samples were then subjected to LC-MS/MS detection for the following analytes for the FADS1 reaction: ^13C5-DGLA and ^13C5-AA or the following analytes for the FADS2 reaction: ^13C18-LA, ^13C18-GLA, ^13C18-DGLA and ^13C18-AA. […]
(§2) The analyte peak areas were quantified by using the Analyst software (SCIEX, Framingham, MA). The percent of substrate to product conversion relative to untreated control were calculated (percent of control [POC]). […]

mouse FADS1 = molecular target: T2, mouse FADS1 (Mus musculus, UniProt Q920L1); assay: Mouse FADS1 cell-based assay; settings: in vitro mouse FADS1 activity assay
T2 sequence (Q920L1 1-447): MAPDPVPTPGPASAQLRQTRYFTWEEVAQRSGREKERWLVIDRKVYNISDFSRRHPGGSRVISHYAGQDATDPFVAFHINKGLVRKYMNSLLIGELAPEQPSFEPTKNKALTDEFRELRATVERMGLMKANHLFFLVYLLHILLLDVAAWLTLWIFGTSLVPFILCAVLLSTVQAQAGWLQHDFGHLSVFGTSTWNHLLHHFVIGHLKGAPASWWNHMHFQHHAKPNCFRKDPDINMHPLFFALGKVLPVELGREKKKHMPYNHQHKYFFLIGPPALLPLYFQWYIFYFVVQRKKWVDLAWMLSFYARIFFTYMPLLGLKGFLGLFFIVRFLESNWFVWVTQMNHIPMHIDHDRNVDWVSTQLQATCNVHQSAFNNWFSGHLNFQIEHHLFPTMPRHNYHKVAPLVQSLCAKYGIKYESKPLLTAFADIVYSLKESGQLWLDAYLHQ
Method: as §1, §2

FADS2 = molecular target: T3, FADS2 (Mus musculus, UniProt Q9Z0R9); assay: FADS2 inhibition by SC-26196 in DIO mice, plasma PUFA ratios; type: in vivo
T3 construct: from tissue; host or cells: living DIO mice; plasma GLA/LA and AA/DGLA ratios
T3 sequence (Q9Z0R9 1-444): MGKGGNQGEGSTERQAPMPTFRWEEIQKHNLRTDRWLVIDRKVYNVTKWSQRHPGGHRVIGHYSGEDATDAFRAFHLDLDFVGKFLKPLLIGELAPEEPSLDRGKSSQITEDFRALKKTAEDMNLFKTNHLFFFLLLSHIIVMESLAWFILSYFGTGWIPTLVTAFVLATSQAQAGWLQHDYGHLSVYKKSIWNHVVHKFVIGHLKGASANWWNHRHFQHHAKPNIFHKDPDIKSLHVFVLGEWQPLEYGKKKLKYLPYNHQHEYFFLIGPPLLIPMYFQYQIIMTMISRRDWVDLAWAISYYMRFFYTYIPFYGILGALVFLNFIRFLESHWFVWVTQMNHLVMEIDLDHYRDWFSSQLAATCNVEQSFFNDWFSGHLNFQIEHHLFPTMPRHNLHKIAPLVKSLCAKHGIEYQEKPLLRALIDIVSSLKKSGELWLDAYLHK
Method: FIG. 12 One-way ANOVA with Dunnett's test for multiple comparisons, *P<0.05, **P<0.01, ***P<0.001, ****P<0.0001.
Ten microliter of plasma or PUFA standards diluted in surrogate matrix (60 g/l bovine serum albumin in Dulbecco's phosphate-buffered saline [DPBS]) were mixed with 10 μl of ALA-d14 as the internal stand in a 96-well plate. 100 μl of 2N NaOH was added to the mixture for subsequent saponification at 65° C. for 1 hour. The mixture was then acidified with 50 μl of formic acid followed by two consecutive 500 μl hexane extractions. The organic extracts from the two extractions were combined and the solvent was evaporated under nitrogen gas. Extracts were then resuspended in 250 μl of 90% methanol and analyzed by liquid chromatography with tandem mass spectrometry (LC-MS/MS) for the following PUFAs: LA, GLA, DGLA, and AA, with ALA-d14 as the internal standard. The PUFA peak areas were quantified by using the Analyst software (SCIEX, Framingham, MA).

human FADS1 = molecular target: T4, human FADS1 (Homo sapiens, UniProt O60427); assay: In vitro FADS1 activity assay (HEK 293 cells with FADS1 BacMam, 13C5-DGLA substrate); type: cell-based; settings: in vitro human FADS1 activity assay
T4 construct: expressed in transfected cells; host or cells: HEK 293 cells transduced with FADS1 BacMam (MOI 25)
T4 sequence (O60427 whole entry): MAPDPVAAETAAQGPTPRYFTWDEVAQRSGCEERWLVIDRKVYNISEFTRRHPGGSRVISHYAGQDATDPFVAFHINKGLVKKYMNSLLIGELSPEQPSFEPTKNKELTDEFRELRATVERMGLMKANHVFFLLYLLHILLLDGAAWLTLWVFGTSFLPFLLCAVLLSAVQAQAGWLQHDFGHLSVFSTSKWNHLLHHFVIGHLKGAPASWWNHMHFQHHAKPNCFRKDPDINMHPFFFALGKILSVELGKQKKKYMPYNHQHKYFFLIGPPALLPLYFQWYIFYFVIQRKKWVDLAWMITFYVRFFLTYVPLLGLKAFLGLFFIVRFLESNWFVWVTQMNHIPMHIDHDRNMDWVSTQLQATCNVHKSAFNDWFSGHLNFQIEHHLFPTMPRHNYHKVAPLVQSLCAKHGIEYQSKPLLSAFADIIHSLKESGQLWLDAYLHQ
Method: HEK 293 cells in Dulbecco's Modified Eagle's medium (DMEM), 10% fetal bovine serum (FBS), 1× penicillin-streptomycin-glutamine (PSG) were mixed with FADS1 BacMam or FADS2 BacMam reagents at multiplicity of infection (MOI) ratio of 25 and plated in a in 96-well poly-D-lysine-coated plate. Plates were incubated in a 37° C., 5% CO2 for 24 hours. Cells were washed with DPBS and cells were incubated with 90 ml of compound dilution in DPBS at 5% CO2, 37° C. for 20 minutes. Ten L of the substrate, ^13C5-DGLA (FADS1), or 13C-LA (FADS2) diluted in DPBS were added to the cells and incubated at 5% CO2, 37° C. for 30 minutes (FADS1) or 45 minutes (FADS2). Cells were then washed with DPBS and 50 μL of 2N NaOH were added to each well and incubated in a 65° C. oven for 1 hour for the saponification reaction. […] Samples were then subjected to LC-MS/MS detection for the following analytes for the FADS1 reaction: ^13C5-DGLA and ^13C5-AA or the following analytes for the FADS2 reaction: ^13C18-LA, ^13C18-GLA, ^13C18-DGLA and ^13C18-AA. Samples were injected onto a Poroshell 120 EC-C18 3.0×50 mm, 1.9 um id column (Agilent, Santa Clara, CA).

## N#CC(CCCN1CCN(/N=C/c2cccnc2)CC1)(c1ccccc1)c1ccccc1 [SC-26196]
Human FADS2
  effect on FADS2 activity: FADS2 specific inhibitor
Mouse FADS1
  effect on FADS1 activity: does not affect FADS1 activity
FADS2
  plasma AA/DGLA ratio: increased
  plasma GLA/LA ratio: affects
Human FADS1
  effect on FADS1 activity: does not affect FADS1 activity
